Data: patent US20260217701A1, “SELECTIVE BET INHIBITORS AND USES THEREOF” (Tay Therapeutics Limited, priority 2022, published 2026)
Where two headings read alike, the source gives them in different places.

Assay: Rat PK study #1 (Compound A PO, methylcellulose vs propylene glycol formulation)
Type: in vivo, Lewis rats
Conditions: male, rat, plasma, Lewis rats, PO 10 mg/kg; for concentration at 2 h / concentration at 4 h / concentration at 8 h / concentration at 24 h / AUC(0-t) / Tmax / Cmax / concentration at 0.083 h / concentration at 0.25 h / concentration at 0.5 h / concentration at 1 h: Lewis, po, 10 mg/kg; for Cmax: read-out: Cmax
Experimental: For the first rat pharmacokinetic study, the pharmacokinetics of Compound A were assessed in male Lewis rats. Compound A was prepared in two different formulations (1% methylcellulose and 20% propylene glycol/20% Vitamin E/60% water) according to Table 3A (see Tables 2A and 2D for formulations). The formulations were made fresh prior to use. Animals were divided into two groups based on the compound formulation (n=3/group). The Compound A solutions were administered to animals orally (PO) and animals were then monitored over a 24 h period.
Blood samples (~0.2 mL) were collected according to a schedule (0.083, 0.25, 0.5, 1, 2, 4, 8, and 24 h following the initial dosing) via the jugular vein by cannulation and EDTA-K2 was used as anticoagulant. Within 30 minutes of collection, the samples were centrifuged at approximately 4000 times g-force for 5 minutes at 4° C. to obtain blood plasma. The plasma samples were immediately divided into two aliquots (~75 μL each), transferred to a cryogenic vial, and stored in a freezer at −75±15° C. prior to analysis.
The concentration of Compound A in plasma samples was determined by liquid chromatography-mass spectrometry (LC-MS/MS) using a Shimadzu HPLC (DGU-20A5R; LC-30AD; SIL-30AC; Rack changer II; CTO-31A; and CBM-20A) and an AB API 5500 LC/MS/MS instrument. Samples were analyzed on an Agilent Poroshell 120 EC-C18 4 μm (50×2.1 mm) column. Solution A in the mobile phase was 95% water (0.1% formic acid) and solution B was 95% acetonitrile in water (0.1% formic acid), injection volume was 3 μL, and flow rate was 0.6 mL/min.
To prepare samples for analysis, serial concentrations were prepared by diluting the stock solution of analyte with a 50% acetonitrile in water solution. 5 μL working solutions (5, 10, 20, 50, 100, 500, 1000, 5000, and 10000 ng/ml) were added to 50 μL of the blank Lewis rat plasma to achieve calibration standards of ~0.5 to 1000 ng/ml (0.5, 1, 2, 5, 10, 50, 100, 500, and 1000 ng/ml) in a total volume of 55 μL. Five quality control samples at 1 ng/ml, 2 ng/ml, 5 ng/mL, 50 ng/mL, and 800 ng/mL for plasma were prepared independently of those used for the calibration curves. These QC samples were prepared on the day of analysis in the same way as calibration standards.
55 μL of standards, 55 μL of QC samples and 55 μL of unknown samples (50 μL of unknown rat plasma with 5 μL of blank solution) were added to 200 μL of acetonitrile containing internal standard (IS; verapamil) mixture for precipitating protein respectively. The samples were then vortexed for 30 s. After centrifugation at 4° C., 3900 rpm for 15 min, the supernatant was diluted 3 times with water. 3 μL of diluted supernatant was injected into the LC/MS/MS system for quantitative analysis.

[1] = 1% methylcellulose formulation, individual animals
[2] = 1% methylcellulose formulation, mean of 3 animals
[3] = propylene glycol/Vitamin E TPGS/water formulation, individual animals
[4] = propylene glycol/Vitamin E TPGS/water formulation, mean of 3 animals

## Cn1cc(-c2ccccc2)c(-c2cn(C)c(=O)c3[nH]c(-c4cnn(C(F)(F)F)c4)cc23)cc1=O [Compound A, 6-methyl-4-(1-methyl-2-oxo-5-phenyl-1,2-dihydropyridin-4-yl)-2-(1-(trifluoromethyl)-1H-pyrazol-4-yl)-1,6-dihydro-7H-pyrrolo[2,3-c]pyridin-7-one]
[1]
  concentration at 2 h: 25.5 ng/mL
  concentration at 4 h: 41.5 ng/mL
  AUC(0-t): 480 ng·h/mL
  Tmax: 4 h
  Cmax: 41.5 ng/mL
[2]
  concentration at 2 h: 23.3 ng/mL
  concentration at 4 h: 44.6 ng/mL
  concentration at 8 h: 49.1 ng/mL
  concentration at 24 h: 2.77 ng/mL
  AUC(0-t): 694 ng·h/mL
  Tmax: 6.67 h
  Cmax: 53.1 ng/mL
[3]
  concentration at 0.083 h: 4.79 ng/mL
  concentration at 0.25 h: 44.5 ng/mL
  concentration at 0.5 h: 125 ng/mL
  concentration at 1 h: 277 ng/mL
  concentration at 2 h: 390 ng/mL
  concentration at 4 h: 445 ng/mL
  concentration at 8 h: 266 ng/mL
  concentration at 24 h: 13.1 ng/mL
  AUC(0-t): 4950 ng·h/mL
  Tmax: 4 h
  Cmax: 445 ng/mL
  AUC(0-inf): 3510 ng·h/mL
  half-life: 4.33 h
[4]
  concentration at 0.083 h: 4.29 ng/mL
  concentration at 0.25 h: 43.8 ng/mL
  concentration at 0.5 h: 131 ng/mL
  concentration at 1 h: 268 ng/mL
  concentration at 2 h: 396 ng/mL
  concentration at 4 h: 399 ng/mL
  concentration at 8 h: 189 ng/mL
  concentration at 24 h: 12.7 ng/mL
  AUC(0-t): 4040 ng·h/mL
  Tmax: 3.33 h
  Cmax: 419 ng/mL
Propylene glycol/Vitamin E TPGS/water formulation, individual animals, read-out: MRTInf_obs
  MRT inf: 6.39 h
